Source: patent US20250009891A1, “CONJUGATES OF MONOCYCLIC BETA-LACTAMS AND SIDEROPHORE MIMETICS” (UNIVERSITY OF NOTRE DAME DU LAC, priority 2021, published 2025)
Values after ≈ are worked out from the molar mass of the structure shown. Like-named read-outs stand apart in the source and are kept apart here.

Tests used:
[1] = system: Gram-negative bacteria; settings: in words, cited from earlier work
[2] = system: P. aeruginosa KW799/wt; experiment: In vitro antibacterial assay (MIC); type: cell-based, Pseudomonas aeruginosa; settings: iron deficient media, duplicate assays
Method: (§1) Antibacterial assay results of new aztreonam derivatives (27, 30, 32 and 37), aztreonam (9a) and earlier data of conjugate 23 are shown in Table 1. The assays were performed using iron deficient media appropriate for screening siderophore conjugates as described previously. […] As expected, none of the compounds were active against the Gram-positive S. aureus. […] Of special interest is the significant inhibitory activity against problematic strains of A. baumannii and P. aeruginosa, including cephalosporinase and carbapenemase producers (A. baumannii TCC 17978 pNT320 and ATCC 17978 pNT165, respectively) which are on the World Health Organization (WHO) list of multi-drug resistant (MDR) pathogens of greatest concern.

[3] = system: P. aeruginosa ARC 3502; experiment: In vitro antibacterial assay (MIC); type: cell-based, Pseudomonas aeruginosa; settings: iron deficient media, duplicate assays
Method: as §1

[4] = system: P. aeruginosa ISR14-004; experiment: In vitro antibacterial assay (MIC); type: cell-based, Pseudomonas aeruginosa; settings: iron deficient media, duplicate assays
Method: as §1

[5] = system: A. baumannii ATCC 17978 pNT165 (carbapenemase producing strain); experiment: In vitro antibacterial assay (MIC); type: cell-based, Acinetobacter baumannii; settings: iron deficient media, duplicate assays
Method: as §1

[6] = system: A. baumannii ATCC BAA 1797; experiment: In vitro antibacterial assay (MIC); type: cell-based, Acinetobacter baumannii; settings: duplicate assays
Method: as §1

[7] = system: A. baumannii ATCC 17961; experiment: In vitro antibacterial assay (MIC); type: cell-based, Acinetobacter baumannii; settings: duplicate assays
Method: as §1

[8] = system: A. baumannii ATCC 17978 pNT320 (cephalosporinase producing strain); experiment: In vitro antibacterial assay (MIC); type: cell-based, Acinetobacter baumannii; settings: iron deficient media, duplicate assays
Method: as §1

[9] = system: E. aerogenes X816; experiment: In vitro antibacterial assay (MIC); type: cell-based; settings: iron deficient media, duplicate assays
Method: as §1

[10] = system: B. dolosa AU0018; experiment: In vitro antibacterial assay (MIC); type: cell-based
Method: as §1

[11] = system: K. pneumoniae ATCC 8303 X68; experiment: In vitro antibacterial assay (MIC); type: cell-based; settings: duplicate assays
Method: as §1

[12] = system: S. aureus SG511; experiment: In vitro antibacterial assay (MIC); type: cell-based; settings: iron deficient media, duplicate assays
Method: as §1

[13] = system: P. aeruginosa 01; experiment: In vitro antibacterial assay (MIC); type: cell-based, Pseudomonas aeruginosa; settings: iron deficient media, duplicate assays
Method: as §1

[14] = system: P. aeruginosa ISR14-003; experiment: In vitro antibacterial assay (MIC); type: cell-based, Pseudomonas aeruginosa; settings: iron deficient media, duplicate assays
Method: as §1

[15] = system: Gram-negative bacteria; experiment: Antibacterial activity, summary statements; type: cell-based; settings: in words; for activity against Gram-negative bacteria that are resistant to aztreonam: iron deficient media
Method: as §1

[16] = system: E. coli DCO; experiment: In vitro antibacterial assay (MIC); type: cell-based, Escherichia coli; settings: iron deficient media, duplicate assays
Method: as §1

[17] = system: P. mirabilis X235; experiment: In vitro antibacterial assay (MIC); type: cell-based; settings: iron deficient media, duplicate assays
Method: as §1

[18] = system: C. freundii ATCC 19063; experiment: In vitro antibacterial assay (MIC); type: cell-based; settings: iron deficient media, duplicate assays
Method: as §1

[19] = Pseudomonas aeruginosa, ARC3502, P. aeruginosa ARC 3502, read-out: MIC
[20] = P. aeruginosa ISR14-004, read-out: MIC
[21] = Acinetobacter baumannii, ATCC17978, A. baumannii ATCC 17978 pNT165, carbapenemase producing
[22] = Acinetobacter baumannii, BAA1797, iron deficient media
[23] = Acinetobacter baumannii, ATCC17961, iron deficient media
[24] = Acinetobacter baumannii, ATCC17978, A. baumannii ATCC 17978 pNT320, cephalosporinase producing
[25] = Klebsiella aerogenes, X816, E. aerogenes X816
[26] = Klebsiella pneumoniae, ATCC8303, iron deficient media
[27] = Pseudomonas aeruginosa, KW799/WT
[28] = Pseudomonas aeruginosa, 01, P. aeruginosa 01
[29] = Pseudomonas aeruginosa, ISR14003, P. aeruginosa ISR14-003, read-out: MIC
[30] = Pseudomonas aeruginosa, ISR14004, P. aeruginosa ISR14-004, read-out: MIC
[31] = Proteus mirabilis, X235, P. mirabilis X235
[32] = Citrobacter freundii, ATCC19063, C. freundii ATCC 19063
[33] = A. baumannii ATCC 17978 pNT320, cephalosporinase producing

| SMILES | MIC [2] [µM] | MIC [3, 19] [µM] | MIC [4, 20] [µM] | MIC [5, 21] [µM] | MIC [6, 22] [µM] | MIC [7, 23] [µM] | MIC [8, 24] [µM] | MIC ([9]; E. aerogenes X816) [µM] | MIC [9, 25] [µM] | MIC [11, 26] [µM] | MIC ([12]; Staphylococcus aureus) [µM] | MIC [2, 27] [µM] | MIC [13, 28] [µM] | MIC [14, 29] [µM] | activity compared to bis-catechol conjugate 23 [15] | activity against Gram-negative bacteria that are resistant to aztreonam [15] | MIC ([16]; Escherichia coli) [µM] | MIC [17, 31] [µM] | MIC [18, 32] [µM] | MIC [8, 33] [µM] | also measured |
| --- | --- | --- | --- | --- | --- | --- | --- | --- | --- | --- | --- | --- | --- | --- | --- | --- | --- | --- | --- | --- | --- |
| C[C@H]1[C@H](NC(=O)/C(=N\OC(C)(C)C(=O)O)c2csc(N)n2)C(=O)N1S(=O)(=O)O [Aztreonam 9a, aztreonam, reference compound] | 3 (≈ 1.31 µg/mL) | > 25 | 6 (≈ 2.61 µg/mL) | > 25 | > 25 | > 25 | > 25 | 0.8 (≈ 0.348 µg/mL) | 1.6 (≈ 0.697 µg/mL) | 0.2 (≈ 0.0871 µg/mL) | > 25 |  |  |  |  |  |  |  |  |  | activity against problematic Gram-negative bacteria ([1]; including carbapenemase and cephalosporinase producing strains of P. aeruginosa and A. baumannii): not active; MIC ([10]; Burkholderia dolosa, B. dolosa AU0018, iron deficient media, duplicate assays, read-out: MIC): > 25 µM |
| C[C@H]1[C@H](NC(=O)/C(=N\OC(C)(C)C(=O)NCCNC(=O)CN(CCCCNC(=O)c2ccc(O)c(O)c2Cl)C(=O)c2ccc(O)c(O)c2Cl)c2csc(N)n2)C(=O)N1S(=O)(=O)O [Compound 37] |  | 4.5 (≈ 4.26 µg/mL) |  | 25 (≈ 23.7 µg/mL) | 0.8 (≈ 0.757 µg/mL) | 0.8 (≈ 0.757 µg/mL) | 0.4 (≈ 0.379 µg/mL) |  | 0.8 (≈ 0.757 µg/mL) | 0.2 (≈ 0.189 µg/mL) |  | 0.2 (≈ 0.189 µg/mL) | 1.2 (≈ 1.14 µg/mL) | 0.4 (≈ 0.379 µg/mL) | comparable to or better than | notably and unexpectedly active | 0.4 (≈ 0.379 µg/mL) | < 0.025 | < 0.025 |  | MIC [4, 30]: 0.2 µM (≈ 0.189 µg/mL) |
| CC1(C)[C@H](NC(=O)/C(=N\OCc2cc(=O)c(O)cn2O)c2csc(N)n2)C(=O)N1OS(=O)(=O)O [BAL 30072] |  |  |  |  |  |  |  |  |  |  |  |  |  |  |  |  |  |  |  |  | in vitro activity ([1]; compounds without free carboxylic acids): retained potent in vitro activity |
| C[C@H]1[C@H](NC(=O)/C(=N\OC(C)(C)C(=O)NCCNC(=O)CN(CCCCNC(=O)c2cccc(O)c2O)C(=O)c2cccc(O)c2O)c2csc(N)n2)C(=O)N1S(=O)(=O)O [Compound 27, (2S,3S)-3-((Z)-18-(2-Aminothiazol-4-yl)-7-(2,3-dihydroxybenzoyl)-1-(2,3-dihydroxy-phenyl)-15,15-dimethyl-1,9,14-trioxo-16-oxa-2,7,10,13,17-pentaazanonadec-17-en-19-amido)-2-methyl-4-oxoazetidine-1-sulfonic acid] |  | 0.8 (≈ 0.702 µg/mL) | 0.2 (≈ 0.176 µg/mL) | 6 (≈ 5.27 µg/mL) | 3 (≈ 2.63 µg/mL) | 0.8 (≈ 0.702 µg/mL) | 1.6 (≈ 1.4 µg/mL) |  | 0.05 (≈ 0.0439 µg/mL) | 0.05 (≈ 0.0439 µg/mL) | > 25 |  | 0.8 (≈ 0.702 µg/mL) | 0.8 (≈ 0.702 µg/mL) | comparable to or better than | notably and unexpectedly active | 0.025 (≈ 0.0219 µg/mL) | < 0.013 | 0.4 (≈ 0.351 µg/mL) | 0.8 (≈ 0.702 µg/mL) | MIC ([13]; P. aeruginosa 01): 0.6 µM (≈ 0.527 µg/mL); MIC ([14]; P. aeruginosa ISR14-003, read-out: MIC): 0.4 µM (≈ 0.351 µg/mL); MIC ([3]; P. aeruginosa ARC 3502, read-out: MIC): 1.6 µM (≈ 1.4 µg/mL); MIC [4, 30]: 0.4 µM (≈ 0.351 µg/mL); MIC ([5]; A. baumannii ATCC 17978 pNT165, carbapenemase producing): 6.25 µM (≈ 5.49 µg/mL); MIC ([10]; Burkholderia dolosa, AU0018): > 25 µM |
| C[C@H]1[C@H](NC(=O)/C(=N\OC(C)(C)C(=O)NOCC(=O)NCCNC(=O)CN(CCCCNC(=O)c2cccc(O)c2O)C(=O)c2cccc(O)c2O)c2csc(N)n2)C(=O)N1S(=O)(=O)O [Compound 30, (2S,3S)-3-((Z)-22-(2-Aminothiazol-4-yl)-7-(2,3-dihydroxybenzoyl)-1-(2,3-dihydroxyphenyl)-19,19-dimethyl-1,9,14,18-tetraoxo-16,20-dioxa-2,7,10,13,17,21-hexaazatricos-21-en-23-amido)-2-methyl-4-oxoazetidine-1-sulfonic acid] | 0.4 (≈ 0.38 µg/mL) |  |  |  | 1.6 (≈ 1.52 µg/mL) | 0.8 (≈ 0.761 µg/mL) | 3 (≈ 2.85 µg/mL) |  | 0.05 (≈ 0.0475 µg/mL) | 0.05 (≈ 0.0475 µg/mL) | > 25 | 0.8 (≈ 0.761 µg/mL) | 0.8 (≈ 0.761 µg/mL) | 0.8 (≈ 0.761 µg/mL) | comparable to or better than | notably and unexpectedly active | 0.025 (≈ 0.0238 µg/mL) | < 0.013 | 0.4 (≈ 0.38 µg/mL) | 1.6 (≈ 1.52 µg/mL) | MIC ([13]; P. aeruginosa 01): 0.4 µM (≈ 0.38 µg/mL); MIC ([10]; Burkholderia dolosa, AU0018): > 25 µM |
| CCN(C(C)C)C(C)C.C[C@H]1[C@H](NC(=O)/C(=N\OC(C)(C)C(=O)NOCC(=O)O)c2csc(N)n2)C(=O)N1S(=O)(=O)O [Compound 32, (Z)-2-(2-Aminothiazol-4-yl)-5,5-dimethyl-1-(((2S,3S)-2-methyl-4-oxo-1-sulfoazetidin-3-yl)amino)-1,6-dioxo-4,8-dioxa-3,7-diazadec-2-en-10-oic acid DIPEA salt] | 25 |  |  |  |  |  |  | 3 |  |  |  |  |  |  |  |  |  |  |  | >25 | MIC ([14]; P. aeruginosa ISR14-003): >25/(>25) μM; MIC ([3]; P. aeruginosa ARC 3502): >25/(>25) μM; MIC ([4]; P. aeruginosa ISR14-004): >25/(25) μM; activity compared to aztreonam (9a) [15]: activity comparable to that of aztreonam; MIC [16]: 1.6 µM; MIC ([6]; iron deficient media): >25 µM; MIC ([7]; iron deficient media): >25 µM; MIC ([10]; B. dolosa AU0018, iron deficient media, duplicate assays): >25/(>25) μM; MIC ([11]; iron deficient media): 0.8 µM; MIC ([17]; P. mirabilis X235): 0.05 µM; MIC [12]: >25 µM; MIC ([18]; C. freundii ATCC 19063): 3 µM |
